Laboratory results from PubChem BioAssay AID651555 (The Scripps Research Institute Molecular Screening Center, 2012).
Activity calls are given as the source filed them.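 How the source made its calls: active means compounds whose half-maximal activation potency EC50 is 10 µM or stronger; inactive means the rest.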

The compounds below were run against Melanocortin receptor 4 (Homo sapiens) (UniProt P32245) (assay: activators of MC4R arrestin recruitment – cell-based, luminescence, agonists, late-stage follow-up (AID 651555)). Details: U2OS MC4R beta-arrestin recruitment, beta-gal luminescence.
Sequence of Melanocortin receptor 4 (Homo sapiens) (P32245 whole entry, looked up): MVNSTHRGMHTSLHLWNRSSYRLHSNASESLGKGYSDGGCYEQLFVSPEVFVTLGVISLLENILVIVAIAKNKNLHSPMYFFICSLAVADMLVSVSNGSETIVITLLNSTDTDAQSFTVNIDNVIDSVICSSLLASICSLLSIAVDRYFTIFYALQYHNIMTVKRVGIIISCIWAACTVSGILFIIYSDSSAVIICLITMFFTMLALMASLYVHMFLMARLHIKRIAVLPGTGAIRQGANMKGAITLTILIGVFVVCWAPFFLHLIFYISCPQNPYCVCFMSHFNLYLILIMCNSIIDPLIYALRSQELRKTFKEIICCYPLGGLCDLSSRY

SMILES | EC50
CCC1CCCCN1S(=O)(=O)c1ccc(NC(=O)c2cccc(S(C)(=O)=O)c2)cc1 (stereo not drawn) | > 50 µM (inactive)
CC(=O)Nc1cc(-c2ccc(N(C)C)cc2)cn2c(-c3ccc(F)c(F)c3)cnc12 | > 50 µM (inactive)
CCC1CCCCN1S(=O)(=O)c1ccc(NC(=O)c2ccccc2)cc1 (stereo not drawn) | inactive
CC(=O)Nc1cc(-c2ccc(N(C)C)cc2)cn2c(-c3ccc(F)cc3)cnc12 | > 50 µM (inactive)
COc1ccc(N(C(C)=O)C(C(=O)NC2CCCC2)c2cccs2)cc1OC (stereo not drawn) | > 50 µM (inactive)
CCC1CCCCN1S(=O)(=O)c1ccc(NC(=O)c2nc(S(C)(=O)=O)ncc2Cl)cc1 (stereo not drawn) | > 50 µM (inactive)
CC(=O)Nc1cc(-c2ccc(N(C)C)cc2)cn2c(-c3ccc(F)c(Cl)c3)cnc12 | > 50 µM (inactive)
CNC(=O)c1cc(Oc2ccc(NC(=O)Nc3ccc(Cl)c(C(F)(F)F)c3)cc2)ccn1 | > 50 µM (inactive)
O=C1c2cccc3cccc(c23)C(=O)N1CC1CCN(CC(O)COc2ccccc2)CC1 (stereo not drawn) | > 50 µM (inactive)
COc1ccccc1C1(CCNC(C)c2cccs2)CCOC(C(C)C)C1 (stereo not drawn) | > 50 µM (inactive)
CCOC(=O)C1(c2ccccc2)CCN(CC(O)COc2ccc3ccccc3c2)CC1 (stereo not drawn) | > 50 µM (inactive)
Cc1ccccc1OCC(O)CN1CCC(CN2C(=O)c3cccc4cccc(c34)C2=O)CC1 (stereo not drawn) | > 50 µM (inactive)
CNC(=O)c1cc(Oc2ccc(NCC(=O)Nc3ccc(Cl)c(C(F)(F)F)c3)cc2)ccn1 | > 50 µM (inactive)
CCC1CCCCN1S(=O)(=O)c1ccc(NC(=O)c2ccnc(SC)n2)cc1 (stereo not drawn) | > 50 µM (inactive)
CC1CCCCN1S(=O)(=O)c1ccc(NC(=O)c2nc(S(C)(=O)=O)ncc2Cl)cc1 (stereo not drawn) | > 50 µM (inactive)
CNC(=O)c1cc(Oc2ccc(NC(=O)CNc3ccc(Cl)c(C(F)(F)F)c3)cc2)ccn1 | > 50 µM (inactive)
O=C1c2cccc3cccc(c23)C(=O)N1CC1CCN(CC(O)COc2ccc3ccccc3c2)CC1 (stereo not drawn) | inactive
Cc1ccccc1CN1Cc2cnnn2-c2ccccc2C1C#N (stereo not drawn) | > 50 µM (inactive)
C#CC(=O)N(c1ccc(OC)c(OC)c1)C(C(=O)NC1CCCC1)c1cccs1 (stereo not drawn) | > 50 µM (inactive)
OC(COc1ccc2ccccc2c1)CN1CCC(Nc2nc3ccccc3o2)CC1 (stereo not drawn) | > 50 µM (inactive)
CC(=O)c1ccc(Nc2nc3ccc(C(=O)N(CCC(C)C)CCC(C)C)cc3n2CCCN2CCCCC2)cc1 | > 50 µM (inactive)
CC(=O)N(C)c1cc(-c2ccc(N(C)C)cc2)cn2c(-c3ccc(F)c(Cl)c3)cnc12 | > 50 µM (inactive)
O=c1[nH]c2ccccc2n1C1CCN(CC(O)COc2ccc3ccccc3c2)CC1 (stereo not drawn) | > 50 µM (inactive)
